Where two headings read alike, the source gives them in different places.
Key:
Human Cytochrome P450 [1] = test: Determination of first-pass effectiveness of furocoumarins (human cytochrome P450-mediated biotransformation, Protocol C / C'); format: in vitro ADME
Procedure: The process of preparing incubation mixtures begins by mixing 10 uL of ethanol or an ethanolic solution containing an inhibitor with 100 uL of 100 mg/mL bovine serum albumin (Sigma) dissolved in reaction buffer at room temperature. Reaction buffer is composed of 0.10 M sodium phosphate, 1.0 mM ethylenediaminetetraacetic acid, and 5.0 mM magnesium chloride, pH 7.4 (all reagents: Fisher Scientific). Inhibitory chemicals used were ketoconazole (Research Diagnostics, Inc.), miconazole, bergapten, xanthotoxin (previous three from Sigma), bergamotin, imperatorin, isopimpinellin, psoralen, angelicin (previous five from Indofine Chemical Company, Inc.), and fractions or precipitates resulting from Protocols A, A', B, B', or B" above. When possible, final inhibitor concentrations were expressed in molarity by calculation from the weighed material or by interpolation from HPLC calibration curves prepared with reference materials; otherwise, concentrations are expressed as weight per volume. Reaction tubes are placed on ice in preparation for the manipulations that follow. Sufficient reaction buffer is added so that the final volume of each tube will be 500 uL, 5 uL of a 100-fold concentrate for generating reduced nicotinamide adenine dinucleotide phosphate is added (such that completed reaction mixture contains 1.0 mM nicotinamide adenine dinucleotide phosphate, 1 U/mL glucose-6-phosphate dehydrogenase, and 10 mM glucose-6-phosphate; all from Sigma), and then human hepatic S9 (Anatomic Gift Foundation) is thawed and added in sufficient amounts to cause readily detectable amounts of metabolites to be formed in control reactions (amount necessary varies among individuals, but 10 uL is typical).
The samples prepared above are readied for HPLC assessment using the protocol that follows. Each tube is vortex mixed and centrifuged for 10 min at setting 35, the resulting supernatant is transferred to a clean tube, and the liquid is evaporated using a Speed Vac apparatus. The residue in each tube is first dissolved in 40 uL 1:1 acetonitrile:water, 2.5 mL of acetonitrile is added, and the centrifuge-transfer-evaporate step just described is repeated.
Linear gradients are used for elution and are formed by mixing mobile phase A composed of water with mobile phase B composed of 0.025% (v/v) formic acid in acetonitrile (instrument: Hewlett Packard). The elution time, in minutes, the percentage of mobile phase B present in the mixed mobile phase, and the flow rate (mL/min) are as follows: 0, 10, 0.10; 2, 10, 0.10; 3.5, 10, 0.20; 4, 10, 0.25; 5, 10, 0.25; 30, 55, 0.25; 32, 98, 0.25; 33, 98, 0.40; 39.8, 98, 0.40; 40, 98, 0.25; 45, 10, 0.25; 45.25, 10, 0.20; 50, 10, 0.20; 50.25, 10, 0.10. The chromatographic column has dimensions of 150 mm length×2.1 mm internal diameter, is packed with a proprietary material (Prism, Keystone Scientific, Inc.), is protected with a 2 mm internal diameter column containing the same material and with a PTFE filter, and is maintained at 35+/-0.2° C. The dry sample residue is mixed with 60 uL of 1:1 acetonitrile:water followed by 40 uL water just prior to each 50.25 min run cycle. The column eluate from each 10 uL injection is monitored for fluorescence with excitation at 228 nm, emission at 291 nm, and bandpass filtration at 280 nm.
The process of preparing incubation mixtures begins by mixing 10 uL of ethanol (control reactions) or an ethanolic solution containing an inhibitor with 100 uL of 100 mg/mL bovine serum albumin (Sigma) dissolved in reaction buffer at room temperature. Reaction buffer is composed of 0.10 M sodium phosphate, 1.0 mM ethylenediaminetetraacetic acid, and 5.0 mM magnesium chloride, pH 7.4 (all reagents: Fisher Scientific). […] Final inhibitor concentrations were expressed in molarity by calculation from the weighed material or by use of Beer's law. Reaction tubes are placed on ice in preparation for the manipulations that follow. […]

Human Cytochrome P450 [2] = test: Protocol C': generation of saquinavir metabolites by human hepatic S9 in the presence of inhibitor; format: in vitro ADME
Procedure: The process of preparing incubation mixtures begins by mixing 10 uL of ethanol (control reactions) or an ethanolic solution containing an inhibitor with 100 uL of 100 mg/mL bovine serum albumin (Sigma) dissolved in reaction buffer at room temperature. Reaction buffer is composed of 0.10 M sodium phosphate, 1.0 mM ethylenediaminetetraacetic acid, and 5.0 mM magnesium chloride, pH 7.4 (all reagents: Fisher Scientific). […] Final inhibitor concentrations were expressed in molarity by calculation from the weighed material or by use of Beer's law. Reaction tubes are placed on ice in preparation for the manipulations that follow. Sufficient reaction buffer is added so that the final volume of each tube will be 500 uL, 5 uL of a 100-fold concentrate for generating reduced nicotinamide adenine dinucleotide phosphate is added (such that completed reaction mixture contains 1.0 mM nicotinamide adenine dinucleotide phosphate, 1 U/mL glucose-6-phosphate dehydrogenase, and 10 mM glucose-6-phosphate; all from Sigma), and then human hepatic S9 (Anatomic Gift Foundation) is thawed and added in sufficient amounts to cause readily detectable amounts of metabolites to be formed in control reactions (amount necessary varies among individuals, but 10 uL is typical). […]
The samples prepared above are readied for HPLC assessment using the protocol that follows. […]

[3] = in vivo; cited from earlier work
first-pass effect [4] = conditions: in vivo; cited from earlier work
first-pass effect [5] = conditions: inhibitors commonly given to humans; cited from earlier work
cytochrome P450 = conditions: given to humans in large doses; cited from earlier work

Compound: C/C(=C\COc1c2ccoc2cc2oc(=O)ccc12)CCC(O)C(C)(C)O (stereo not drawn) [6', 7'-dihydroxybergamottin]
- first-pass effect effectiveness (Human Cytochrome P450 [1]): ineffective

Compound: O=c1ccc2ccc3occc3c2o1 [angelicin]
- first-pass effect effectiveness (Human Cytochrome P450 [1]; determined herein): ineffective

Compound: CC(C)=CCC/C(C)=C/COc1c2ccoc2cc2oc(=O)ccc12 [bergamottin]
- first-pass effect effectiveness (Human Cytochrome P450 [1]): ineffective
- first-pass inhibition (saquinavir metabolite generation) (Human Cytochrome P450 [2]): essentially ineffective first-pass inhibitors

Compound: COc1c2ccoc2cc2oc(=O)ccc12 [bergapten, 5-methoxypsoralen]
- phototoxicity [3]: phototoxic

Compound: CC[C@H]1OC(=O)[C@H](C)[C@@H](O[C@H]2C[C@@](C)(OC)[C@@H](O)[C@H](C)O2)[C@H](C)[C@@H](O[C@@H]2O[C@H](C)C[C@H](N(C)C)[C@H]2O)[C@](C)(O)C[C@@H](C)C(=O)[C@H](C)[C@@H](O)[C@]1(C)O [erythromycin]
- inhibition of the first-pass effect (first-pass effect [4]): inhibitors of the first-pass effect

Compound: OC(Cn1cncn1)(Cn1cncn1)c1ccc(F)cc1F [fluconazole]
- inhibition of the first-pass effect (first-pass effect [4]): inhibitors of the first-pass effect

Compound: CC(C)=CCOc1c2occc2cc2ccc(=O)oc12 [imperatorin]
- first-pass effect effectiveness (Human Cytochrome P450 [1]; determined herein): ineffective
- first-pass inhibition (saquinavir metabolite generation) (Human Cytochrome P450 [2]; FIG. 1, Protocol C', saquinavir, human hepatic S9): essentially ineffective first-pass inhibitors

Compound: COc1c2ccoc2c(OC)c2oc(=O)ccc12 [isopimpinellin]
- first-pass effect effectiveness (Human Cytochrome P450 [1]; determined herein): ineffective

Compound: CCC(C)n1ncn(-c2ccc(N3CCN(c4ccc(OCC5COC(Cn6cncn6)(c6ccc(Cl)cc6Cl)O5)cc4)CC3)cc2)c1=O (stereo not drawn) [itraconazole]
- inhibition of the first-pass effect (first-pass effect [4]): inhibitors of the first-pass effect

Compound: CC(=O)N1CCN(c2ccc(OCC3COC(Cn4ccnc4)(c4ccc(Cl)cc4Cl)O3)cc2)CC1 (stereo not drawn) [ketoconazole]
- inhibition of the first-pass effect (first-pass effect [4]): inhibitors of the first-pass effect

Compound: C/C(=C\COc1ccc2ccc(=O)oc2c1)CCC(O)C(C)(C)O (stereo not drawn) [marmin]
- first-pass effect effectiveness (Human Cytochrome P450 [1]): ineffective

Compound: Clc1ccc(COC(Cn2ccnc2)c2ccc(Cl)cc2Cl)c(Cl)c1 (stereo not drawn) [miconazole]
- inhibition of the first-pass effect (first-pass effect [4]): inhibitors of the first-pass effect

Compound: Cc1ncc2n1-c1ccc(Cl)cc1C(c1ccccc1F)=NC2 [midazolam]
- bioavailability in presence of inhibitors (first-pass effect [5]): bioavailability is increased by inhibitors commonly given to humans

Compound: O=c1ccc2cc3ccoc3cc2o1 [psoralen]
- first-pass effect effectiveness (Human Cytochrome P450 [1]; determined herein): ineffective
- phototoxicity [3]: phototoxic
- inhibition of cytochrome P450 (cytochrome P450): do inhibit cytochrome P450

Compound: Cc1nnc2n1-c1ccc(Cl)cc1C(c1ccccc1Cl)=NC2 [triazolam]
- bioavailability in presence of inhibitors (first-pass effect [5]): bioavailability is increased by inhibitors commonly given to humans

Compound: CO[C@H]1C[C@H](O[C@H]2[C@H](C)[C@@H](O[C@@H]3O[C@H](C)C[C@H](N(C)C)[C@H]3OC(C)=O)[C@@H](C)C[C@@]3(CO3)C(=O)[C@H](C)[C@@H](OC(C)=O)[C@@H](C)[C@@H](C)OC(=O)[C@@H]2C)O[C@@H](C)[C@@H]1OC(C)=O [troleandomycin]
- inhibition of the first-pass effect (first-pass effect [4]): inhibitors of the first-pass effect

Compound: COc1c2occc2cc2ccc(=O)oc12 [xanthotoxin, 8-methoxypsoralen]
- phototoxicity [3]: phototoxic
